Patent US20210255184A1, “Biosensor Device and Methods” (The New Zealand Institute for Plant and Food Research …, priority 2018, published 2021)
Like-named read-outs stand apart in the source and are kept apart here.

Assays:
[1] = target: T1, Or22a/Orco (Drosophila melanogaster, UniProt P81909); experiment: Droplet interface bilayer ion channel recording, Or22a/Orco; type: biochemical; settings: DIB, 10 μM ligand, at +/−100 mV, +/−50 mV and −25 mV
T1 construct: his-tag; made in house; host or cells: baculovirus-infected Sf9 cells
T1 sequence (P81909 1-397): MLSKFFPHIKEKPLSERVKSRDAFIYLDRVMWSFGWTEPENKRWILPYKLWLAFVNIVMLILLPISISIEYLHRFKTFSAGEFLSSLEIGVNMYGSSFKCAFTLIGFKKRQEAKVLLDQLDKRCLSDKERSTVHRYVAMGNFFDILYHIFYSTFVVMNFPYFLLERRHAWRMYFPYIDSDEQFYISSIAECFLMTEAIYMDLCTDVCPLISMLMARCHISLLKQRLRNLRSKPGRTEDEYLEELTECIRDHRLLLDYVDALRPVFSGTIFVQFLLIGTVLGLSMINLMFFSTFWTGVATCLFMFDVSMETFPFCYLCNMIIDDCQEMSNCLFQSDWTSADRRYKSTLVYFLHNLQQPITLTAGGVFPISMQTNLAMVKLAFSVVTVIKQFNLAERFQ
T1 sequence (Q9VNB5 1-486 partner): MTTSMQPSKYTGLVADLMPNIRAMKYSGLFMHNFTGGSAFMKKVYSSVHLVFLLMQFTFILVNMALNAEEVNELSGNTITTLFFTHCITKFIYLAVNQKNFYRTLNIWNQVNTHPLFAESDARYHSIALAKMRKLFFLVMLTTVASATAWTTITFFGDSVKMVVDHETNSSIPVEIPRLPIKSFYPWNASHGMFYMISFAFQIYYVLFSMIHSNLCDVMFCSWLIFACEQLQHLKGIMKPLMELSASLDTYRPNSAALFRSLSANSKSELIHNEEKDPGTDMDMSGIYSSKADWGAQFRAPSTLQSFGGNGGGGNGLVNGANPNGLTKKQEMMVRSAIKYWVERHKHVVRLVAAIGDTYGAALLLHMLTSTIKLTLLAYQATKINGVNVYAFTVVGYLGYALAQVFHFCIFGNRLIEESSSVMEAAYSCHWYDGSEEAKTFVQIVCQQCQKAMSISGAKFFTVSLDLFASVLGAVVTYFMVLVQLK
Experimental: Bilayers were formed between two droplets formed within a PMMA chamber filled with 1 mg/ml DPhPC in undecane and AR20 silicone oil (1:1 ratio). The first step in this process was to deposit a 50 nl droplet onto the stationary silver electrode positioned at the base of the well; this droplet consisted of an aqueous solution containing 300 mM NaCl, 10 mM HEPES (pH 7.4), containing the odorant receptor proteins in proteoliposomes (at a 1:20 dilution from the proteoliposome preparation), […] The second droplet was mounted onto a second silver electrode which was held in the oil and lipid mixture using a YOU-3 manipulator (Narishige, Japan). […] Once the droplets were in contact a bilayer formed spontaneously within 1 minute (as determined by visual assessment and an increase in the bilayer capacitance as measured with a capacitance voltage protocol using the Pico2 amplifier). Insertion of an active channel was determined by a change in current while clamping the voltage at 50 mV. […]
Currents were recorded with a Pico2 or an eONE-HS amplifier (Tecella, USA and Elements, Italy, respectively) with built-in digitizers, operating in gap-free acquisition mode at a sampling frequency of 20 kHz, and using a 0.8 or 1.5 kHz low pass filter. […]
Data were analysed using ANA (Dr Pusch, Genoa), EDR (Elements, Italy) and WinWCP (Dr Dempster, University of Strathclyde). […]

[2] = target: T2, DmOr22a/Orco (Drosophila melanogaster, UniProt P81909); settings: * estimated visually from graph, cited from earlier work
T2 sequence (P81909 1-397): T1 sequence (P81909 1-397)
T2 sequence (Q9VNB5 1-486 partner): T1 sequence (Q9VNB5 1-486 partner)

Structure (SMILES): CCCCCC(=O)OC [methyl hexanoate]
- ion channel activity [1]: ion channel activity is observed
- Sensitivity limit (given as Log) ([2]; ref 43): Log = −7.5*
- Sensitivity limit (given as Log) ([2]; ref 44): Log = −7*
